Laboratory results published in BindingDB's records for doi:10.1021/jm00029a001 (Bristol-Myers Squibb Pharmaceutical Research Institute, 1994).

Target: not listed separately
Test: Selectivity for the ET-A receptor over ETB receptor was observed in rat cerebellar membranes

Row | SMILES | Ki
1 | Cc1noc(NS(=O)(=O)c2cccc3c(N(C)C)cccc23)c1C [BMS-182874] | > 200 µM

Target: Endothelin-1 receptor (Rattus norvegicus) (UniProt P26684)
Test: Ability to inhibit [125I]ET1 binding to vascular smooth muscle (vsm)- A10 cells

Sequence of Endothelin-1 receptor (Rattus norvegicus) (P26684 whole entry, looked up): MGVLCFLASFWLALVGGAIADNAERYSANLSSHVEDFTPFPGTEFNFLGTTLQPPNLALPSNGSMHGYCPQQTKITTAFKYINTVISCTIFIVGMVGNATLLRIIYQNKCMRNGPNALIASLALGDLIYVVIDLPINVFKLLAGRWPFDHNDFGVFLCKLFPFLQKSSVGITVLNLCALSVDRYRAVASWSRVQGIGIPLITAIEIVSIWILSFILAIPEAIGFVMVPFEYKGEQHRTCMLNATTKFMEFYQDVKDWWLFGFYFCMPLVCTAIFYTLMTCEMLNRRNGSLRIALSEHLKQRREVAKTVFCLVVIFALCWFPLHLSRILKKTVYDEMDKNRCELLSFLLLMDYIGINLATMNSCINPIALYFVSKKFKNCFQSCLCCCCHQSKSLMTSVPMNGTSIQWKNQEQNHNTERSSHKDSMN

Row | SMILES | IC50
2 | Cc1cc(NS(=O)(=O)c2ccc(N)cc2)on1 [4-Amino-N-(3-methyl-isoxazol-5-yl)-benzenesulfonamide] | 28 µM
3 | Cc1noc(NS(=O)(=O)c2ccc(NCc3ccccc3)cc2)c1C [4-Benzylamino-N-(3,4-dimethyl-isoxazol-5-yl)-benzenesulfonamide] | 9.8 µM
4 | Cc1noc(NS(=O)(=O)c2ccc(C#N)cc2)c1C [4-Cyano-N-(3,4-dimethyl-isoxazol-5-yl)-benzenesulfonamide] | > 32 µM
5 | Cc1noc(NS(=O)(=O)c2ccc(N(C)C)cc2)c1C [4-Dimethylamino-N-(3,4-dimethyl-isoxazol-5-yl)-benzenesulfonamide] | 84 µM
6 | Cc1noc(NS(=O)(=O)c2cccc3c(CN(C)C)cccc23)c1C [5-Dimethylaminomethyl-naphthalene-1-sulfonic acid (3,4-dimethyl-isoxazol-5-yl)-amide] | 2.8 µM
7 | CCCNc1ccc(S(=O)(=O)Nc2onc(C)c2C)cc1 [N-(3,4-Dimethyl-isoxazol-5-yl)-4-propylamino-benzenesulfonamide] | 27 µM
